# Patent publication US7867702B2, “Screen for novel protein inhibitors based upon engineered cell line containing an inducible overactivity gene and compensatory gene” (priority 2003, dated 2011)
# B1: Domain I: N-terminal domain (amino acids 1 to 86) of wild type DnaA, biotin-tagged, expressed in SF58; poisons initiation complexes (protein, UniProt P03004 1-86, looked up, fragment)
# chain: MSLSLWQQCLARLQDELPATEFSMWIRPLQAELSDNTLALYAPNRFVLDWVRDKYLNNINGLLTSFCGADAPQLRFEVGTKPVTQT
# modifications: biotin tag
# notes: N-terminal domain (amino acids 1 to 86) of wild type DnaA, biotin-tagged, expressed in SF58; poisons initiation complexes
# Key:
# [1] = system: strain SF58 (dnaA219, rnh::cam/pdnaA[1-86]-biotin); test: Growth of strain SF58 at 30° C. with IPTG-induced Domain I of DnaA (flask cultures, OD450); assay type: cell-based, E. coli; settings: for difference in OD450, induced vs uninduced culture: 10 parallel cultures
# Experimental: The following experiments were performed to provide evidence that strain SF53 will survive when a drug has inactivated the DnaA protein. Such evidence can be obtained without a lead drug, by using production of the N-terminal domain (Domain I amino acids 1 to 86) of wild type DnaA. Domain I of DnaA is important for oligomerization and formation of proper initiation complexes. […] Strain SF53 was transformed with a plasmid carrying an IPTG-inducible gene encoding biotin-tagged Domain I (pBEX5BA-dnaA[1-86]-biotin), transformants checked, and the strain named SF58 (Table 1).
# The growth of strain SF58 was tested at three different concentrations of IPTG. An overnight culture of strain SF58 grown at 42° C. was diluted 1:1000 in fresh ABB1 glucose CAA medium and split into five flasks. Culture nos. 1 to 4 were grown at 30° C. and culture no. 5 at 42° C. IPTG was added to culture no. 2, 3 and 4 at a concentration of 0.25, 0.5 and 1 mM, respectively, at the time of dilution. Growth curves were followed by measurement of OD450 for 8 hours. […] The OD450 was less than 0.03 at all time points.
# The concentrations of Domain I present after 4 generations growth in the presence of the three different concentrations of IPTG, was assessed by Western blot. A ten-fold difference in OD450 between the culture grown without IPTG (culture no. 1) and the culture grown with 1 mM IPTG (culture no. 4) was obtained after about 10 hours. Thus, when performing a drug screen with the dnaA219rnh strain, a positive hit will be detected by a ten-fold difference in OD450 after about 10 hours in the presence of the drug.
# To determine the robustness of the screen and also at which time, in a high throughput assay, it is optimal to measure the difference in OD450 we made the following measurements (FIG. 2). Essentially the same experiment as in FIG. 1 was performed, but OD450 was measured at only three time points, 20 h, 27 h and 48 h, in 10 different parallel cultures. A 20-40 fold difference was obtained after 20 h and after 27 h. After 48 h a background in the uninduced culture started to appear and the difference dropped to about 5 fold. Therefore, measurements of OD450 in high throughput screens should be performed after 10-30 hours of incubation.
# SF58 = test: Microtiter-format growth of SF58 with IPTG (assay validation, positive control); assay type: cell-based, E. coli; settings: 0.31 mM IPTG and above vs 0 to 0.16 mM IPTG, 30° C., after 18 hours
# Experimental: The first part of an assay transfer & validation procedure involves the reproduction of the results in microtiter format. […] All 48 replicate cultures of the same microtiter plate of FIG. 3 behaved similarly. […] In addition, after 18 h (6.4×10^4 s) the OD's of the induced cultures are well above controls.
# A series of experiments were then performed to assess the signal as a function of the starting inoculum (i.e. the theoretical OD of the culture present in a microtiter well). The data (not shown) indicate that there is no significant difference in the SF58-IPTG growth curve if the inoculum is obtained by dilution of an overnight culture or of an actively growing 42° C.-culture. Consequently, the time for measuring the OD was set at 18 h, and the procedure used was to grow 5 μl of SF53 or SF58 in 30 ml glucose CAA medium (with […]) overnight at 42° C. until the OD600 was 1.2. The stock was diluted 1:100 in glucose CAA (without […]). 90 μl of this was dispensed into each well, with 10 μl of sample. […]
# Following the procedure outlined above, a screening of 4240 microbial extracts was performed. Each 96-microtiter plate contained as controls four wells inoculated with SF53, four wells inoculated with SF58 and 8 wells inoculated with SF58 in the presence of 2.5 mM IPTG. […]
Molecule,"difference in OD450 between culture grown without IPTG and culture grown with IPTG ([1]; 1 mM IPTG, 30° C., after about 10 hours)","growth rate of SF58 cultures grown at 30° C. with IPTG ([1]; IPTG 0.25, 0.5 and 1 mM, 30° C., OD450 followed for 8 hours)","difference in OD450, induced vs uninduced culture ([1]; after 20 h, 30° C.)","difference in OD450, induced vs uninduced culture ([1]; after 27 h, 30° C.)","difference in OD450, induced vs uninduced culture ([1]; after 48 h, 30° C.)",OD405 of induced SF58 cultures compared with controls (SF58),"growth of the strain at 30° C. ([1]; induction of Domain I by IPTG in SF58, 30° C.)"
CC(C)S[C@@H]1O[C@H](CO)[C@H](O)[C@H](O)[C@H]1O [IPTG],ten-fold,increasing growth rates with increasing concentration of IPTG,20-40 fold,20-40 fold,about 5 fold,significantly higher than controls,–
B1,–,–,–,–,–,–,restored
